Data on 26 compounds can be found in patent US10927096B2, “Ester substituted ion channel blockers and methods for use” (Nocion Therapeutics, Inc., priority 2019, dated 2021).

Where only a bound is given, the exact number is not on record here.

Series [1] in a line: PAMPA membrane permeability assay. The following applies: pH 7.4 buffer, GIT lipid, 4 hours incubation. It counts as physicochemical. As for the experimental part:
The PAMPA assay (pION, Inc., Woburn Mass.) was used to determine the ability of compounds of the invention to cross an artificial lipid membrane by passive diffusion. Test compounds were dissolved in DMSO (10 mM) and diluted 200-fold in buffer (pION Inc., pH 7.4) to provide 50 uM stock solutions. Buffer (150 μL) was added to a UV blank plate and stock solutions (150 μL) were transferred to a UV reference plate. The blank and reference spectrum were read using a spectrophotometer. Stock solutions (200 μL) were added to the donor plate of the PAMPA sandwich plate and an accept plate painted with GIT lipid (pION Inc, 5 μL) was placed on top. Buffer (200 μL) was added to the acceptor plate and the PAMPA sandwich plate was incubated for 4 hours. Aliquots (150 μL) from the acceptor plate were added to a UV plate and read as acceptor spectrum. Aliquots (150 μL) of the donor solutions were added to a UV analysis plate and read as donor spectrum. The permeability coefficient of test compounds was calculated using PAMPA Explorer™ software (version 3.5.0.4) based on the AUC of the reference plate, the donor plate, and the acceptor plate.
The PAMPA permeability results (10^−6 cm/s) of representative compounds are reported as “+” (<0.1 10^−6 cm/s), “++” (0.1-2.0 10^−6 cm/s), “+++” (2.0-10.010^−6 cm/s) or “++++” (>10.0 10^−6 cm/s).

Series [2] deals with T1, NaV1.7 (Homo sapiens, UniProt Q15858).
T1 construct: expressed in transfected cells; host or cells: HEK293, tetracycline-inducible
Description: Automated patch clamp (Qube 384), internal block of NaV1.7 in HEK293 cells. In kind it is cell-based. The following applies: compound in internal solution, read-out: NaV1.7 Intracellular Inhibition. As for the experimental part: (§1) NaV1.7 was expressed in HEK293 cells upon induction with tetracycline. Cells were cultured in DMEM containing 10% dialyzed Fetal Bovine Serum (VWR, Radnor, Pa.), 1% Glutamax (VWR, Radnor, Pa.), 1% Penicillin-Streptomycin (VWR, Radnor, Pa.), 100 mg/L Hygromycin (Thermo Fisher Scientific, Waltham, Mass. and 5 mg/L Blasticidin (Alfa Aesar, Haverhill, Mass.). Cells were grown and maintained at 37° C. in a humidified environment containing 10% CO2 in air. Cells were detached from the culture flask for passage and harvested using 0.05% Trypsin-EDTA (Thermo Fisher Scientific, Waltham, Mass.). To induce NaV1.7, cells were induced with tetracycline (0.1-1 μg/mL, IBI Scientific, Peosta, Iowa) the day before recording.
(§2) Before experiments, cells were washed with DPBS (VWR, Radnor, Pa.), digested with Detachin (VWR Radnor, Pa.) and then triturated 10 times in CHO Serum-Free Media (VWR Radnor, Pa.) to resuspend the cells and to break apart cell aggregates. Cells were counted and the final concentration was set at 2-5 million cells per mL.
(§3) The intracellular solution contained the following: 140 mM CsF, 1 mM/5 mM EGTA/CsOH, 10 mM HEPES, 10 mM NaCl, adjusted to pH 7.3 with CsOH, and osmolality to 320 with sucrose. The external solution contained the following: 145 mM NaCl, 4 mM KCl, 1 mM MgCl2, 2 mM CaCl2, 10 mM HEPES, 10 mM Glucose, adjusted to pH 7.4 with CsOH and osmolality to 305 with sucrose. All chemicals are from Sigma-Aldrich, St. Louis, Mo. In order to test the degree of internal block by test compounds, the compounds were dissolved in internal solution at the indicated test concentration. […] In order to test the degree of external block by test compounds the compounds were dissolved in external solution at the indicated test concentration.
(§4) Automated Patch Clamps were performed on Qube 384 (Sophion Bioscience, Woburn Mass.) with multihole Qchips at a temperature setting of 22 degrees. The whole cells configuration was formed with default Qube seal and break-in parameter. The membrane potential was held at −100 mV before the voltage protocol began. Two voltage protocols were followed.
(§5) Step 1: Cells were held at −100 mV with a depolarized pulse to −20 mV for 10 ms, the interval was set at 5 s. Currents were corrected by default leak subtraction from every pulse. The duration was set at 5 mins.
(§6) Step 2: Cells were held at −100 mV with a depolarized pulse to −20 mV for 10 ms. The frequency was 5 Hz. Currents were corrected by leak subtraction calculated before step 2. The duration was set at 4 mins.
After Step 2, the Qchip was removed from the recording chamber. The internal solution was changed with solutions containing test compounds. Qchips were held at −100 mV without pulsing after being replaced in the recording chamber. The total solution switching time was 8 minutes. After the internal solution exchange, Cells were recorded and step 2 for repeated for 10 minutes.
Data analysis was performed by Sophion Analyzer. Cells were filtered with minimum 50 MOhm seal resistance and minimum 5 nA starting current. The rundown of the currents was corrected with control cells (Non-Drug). The remaining was calculated by averaging last 3 points in the end of experiments. The base line was calculated as the average of last 3 points of Step 2. IC50 curves were plotted with DR-plots/Hill function (a dose-response plot with a Hill fit).
Representative examples of the invention were tested for intracellular inhibition of NaV 1.7 in the automated patch clamp assay. Activity Range is reported as IC50: “++++” (<1 μM), “+++” (1-3 μM), “++” (3-10 μM) or “+” (10-30 μM).
(The patch-clamp technique gives a direct electrical read-out from membranes.)

The target of series [3] is T1, NaV1.7. Description: Automated patch clamp (Qube 384), external block of NaV1.7 in HEK293 cells. In kind it is cell-based. The following applies: compound in external solution, read-out: NaV1.7 Extracellular Inhibition. The protocol: as §1, §2, §3, §4, §5, §6
After Step 2, the external solution was changed with solutions containing test compounds. Qchips were held at −100 mV without pulsing. The total solution switching time was 8 minutes. After the external solution exchange, cells were recorded using the same procedure as step 2 for 10 minutes.
Data analysis was performed by Sophion Analyzer. Data were corrected with control cells (Non-Drug). The IC50 data were plotted with DR-plots/Hill function (a dose-response plot with a Hill fit).
Representative examples of the invention were tested for extracellular inhibition of NaV 1.7 in the automated patch clamp assay. Activity Range is reported as IC50: “++++” (<1 μM), “+++” (1-10 μM), “++” (10-30 μM) or “+” (>30 μM).

T1 sequence (Q15858 whole entry): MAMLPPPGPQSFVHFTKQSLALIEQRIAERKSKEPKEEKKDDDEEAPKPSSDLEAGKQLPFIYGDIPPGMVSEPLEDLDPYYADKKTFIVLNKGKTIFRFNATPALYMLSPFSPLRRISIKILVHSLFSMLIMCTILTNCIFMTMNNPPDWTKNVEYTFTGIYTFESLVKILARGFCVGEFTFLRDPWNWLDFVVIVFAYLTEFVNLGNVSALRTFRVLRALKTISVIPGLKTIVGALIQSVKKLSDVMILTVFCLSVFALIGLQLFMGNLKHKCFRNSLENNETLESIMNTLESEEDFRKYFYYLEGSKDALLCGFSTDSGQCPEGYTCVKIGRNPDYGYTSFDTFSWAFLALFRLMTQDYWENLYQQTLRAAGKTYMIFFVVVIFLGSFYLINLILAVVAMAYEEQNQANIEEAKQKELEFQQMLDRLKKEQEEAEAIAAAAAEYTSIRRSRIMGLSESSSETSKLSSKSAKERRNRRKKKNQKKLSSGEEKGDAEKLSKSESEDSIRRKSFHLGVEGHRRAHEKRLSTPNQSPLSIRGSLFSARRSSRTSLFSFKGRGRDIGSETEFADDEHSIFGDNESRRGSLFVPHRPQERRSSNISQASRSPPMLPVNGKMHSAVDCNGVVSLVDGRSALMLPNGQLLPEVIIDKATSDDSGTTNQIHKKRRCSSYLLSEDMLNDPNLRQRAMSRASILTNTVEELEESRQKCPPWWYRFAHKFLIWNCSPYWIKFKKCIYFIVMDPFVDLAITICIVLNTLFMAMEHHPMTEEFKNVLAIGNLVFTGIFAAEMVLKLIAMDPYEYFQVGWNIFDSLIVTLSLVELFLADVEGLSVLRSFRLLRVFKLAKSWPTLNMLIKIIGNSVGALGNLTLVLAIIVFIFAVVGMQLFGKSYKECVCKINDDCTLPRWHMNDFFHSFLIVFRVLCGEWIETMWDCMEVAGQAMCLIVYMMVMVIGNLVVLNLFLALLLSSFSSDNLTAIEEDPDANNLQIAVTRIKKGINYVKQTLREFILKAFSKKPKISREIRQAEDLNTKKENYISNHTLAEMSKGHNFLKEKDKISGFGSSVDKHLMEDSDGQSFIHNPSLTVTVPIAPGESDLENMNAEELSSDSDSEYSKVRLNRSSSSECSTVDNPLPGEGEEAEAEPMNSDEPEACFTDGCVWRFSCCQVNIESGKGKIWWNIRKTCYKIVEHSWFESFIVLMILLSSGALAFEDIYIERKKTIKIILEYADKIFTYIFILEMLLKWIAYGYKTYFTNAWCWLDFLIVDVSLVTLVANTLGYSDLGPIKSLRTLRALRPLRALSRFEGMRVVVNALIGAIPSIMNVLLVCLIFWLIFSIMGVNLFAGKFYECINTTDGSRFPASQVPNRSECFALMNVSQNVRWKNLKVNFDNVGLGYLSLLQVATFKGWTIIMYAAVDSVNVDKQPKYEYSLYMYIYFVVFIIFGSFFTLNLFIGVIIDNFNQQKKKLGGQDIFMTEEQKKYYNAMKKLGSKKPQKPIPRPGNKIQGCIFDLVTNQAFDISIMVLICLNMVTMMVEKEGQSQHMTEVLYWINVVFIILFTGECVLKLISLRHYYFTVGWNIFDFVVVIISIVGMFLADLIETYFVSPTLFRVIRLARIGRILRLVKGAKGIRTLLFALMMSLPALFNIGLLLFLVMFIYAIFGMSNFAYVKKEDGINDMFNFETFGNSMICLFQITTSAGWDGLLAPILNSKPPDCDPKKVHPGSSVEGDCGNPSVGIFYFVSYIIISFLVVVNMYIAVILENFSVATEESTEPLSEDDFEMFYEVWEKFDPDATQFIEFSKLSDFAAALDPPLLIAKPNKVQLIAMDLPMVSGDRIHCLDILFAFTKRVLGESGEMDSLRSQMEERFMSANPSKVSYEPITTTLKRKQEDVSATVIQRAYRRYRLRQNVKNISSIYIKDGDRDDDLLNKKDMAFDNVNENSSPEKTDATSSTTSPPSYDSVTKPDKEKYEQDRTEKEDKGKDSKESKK

As for `CCCCOC(=O)C1CCC[N+](CC(=O)Nc2c(C)cccc2C(=O)OC)(Cc2ccccc2)C1.[Br-]` (mixture of isomers) [Compound 14], the “PAMPA (10^−6 cm/s)” value in series [1] is “+ (<0.1 10^−6 cm/s)”. Moreover, in series [2], the IC50 was 1000 to 3000 nM.
For `CCCCOC(=O)C1CCC[N+](CC)(CC(=O)Nc2c(C)cccc2C(=O)OC)C1.[I-]` (mixture of isomers) [Compound 15], in that order: “+ (<0.1 10^−6 cm/s)” and 1000 to 3000 nM.
`CCOC(=O)C1CCC[N+](CC(=O)Nc2c(C)cccc2C(=O)OC)(Cc2ccccc2)C1` (mixture of isomers) [Compound 16]: the values for the IC50 in series [3] and in series [2] were 1000 to 10000 nM and less than 1000 nM, respectively. For the same compound, the “PAMPA (10^−6 cm/s)” value in series [1] was “+ (<0.1 10^−6 cm/s)”.
In the case of `CC[N+]1(CC(=O)Nc2c(C)cccc2C(=O)OC)CCCC(C(=O)OC2CCCCC2)C1` (mixture of isomers) [Compound 27], the “PAMPA (10^−6 cm/s)” value in series [1] was “+ (<0.1 10^−6 cm/s)”. Further, in series [2], the IC50 is 1000 to 3000 nM.
On to `CCCNC(=O)C1CCC[N+](CC(=O)Nc2c(C)cccc2C(=O)OC)(Cc2ccccc2)C1` (mixture of isomers) [Compound 28], for which the values for the IC50 in series [3] and in series [2] were 10000 to 30000 nM and less than 1000 nM, respectively. Further, the “PAMPA (10^−6 cm/s)” value in series [1] is recorded as “+++ (2.0-10.010^−6 cm/s)”.
For `CNC(=O)C1CCC[N+](CC(=O)Nc2c(C)cccc2C(=O)OC)(Cc2ccccc2)C1` (mixture of isomers) [Compound 31], in that order: more than 30000 nM, less than 1000 nM and “+ (<0.1 10^−6 cm/s)”.
For `COC(=O)c1cccc(C)c1NC(=O)C[N+]1(Cc2ccccc2)CCCC(C(=O)N(C)C)C1` (mixture of isomers) [Compound 40], the “PAMPA (10^−6 cm/s)” value in series [1] was “+ (<0.1 10^−6 cm/s)”. In addition, in series [2], the IC50 was less than 1000 nM.
On the same counts, the results for `COC(=O)c1cccc(C)c1NC(=O)C[N+]1(Cc2ccccc2)CCCC(C(=O)N2CCCC2)C1` (mixture of isomers) [Compound 43] are “+ (<0.1 10^−6 cm/s)” and 1000 to 3000 nM.
On the same counts, the results for `CC[N+]1(CC(=O)Nc2c(C)cccc2C(=O)OC)CCCC(C(=O)N2CCCC2)C1` (mixture of isomers) [Compound 54] are “+ (<0.1 10^−6 cm/s)” and 1000 to 3000 nM.
In the case of `CNC(=O)C[N+]1(CC(=O)Nc2c(C)cccc2C(=O)OC)CCCC(c2ccccc2)C1.[Br-]` (mixture of isomers) [Compound 59], the “PAMPA (10^−6 cm/s)” value in series [1] is “+ (<0.1 10^−6 cm/s)”. Moreover, the IC50 in series [2] was less than 1000 nM.
For `COC(=O)c1cccc(C)c1NC(=O)C[N+]1(CC(N)=O)CCCC(c2ccccc2)C1` (mixture of isomers) [Compound 61], in that order: “+ (<0.1 10^−6 cm/s)” and less than 1000 nM.
For `CCN(CC)C(=O)C[N+]1(CC(=O)Nc2c(C)cccc2C(=O)OC)CCCC(c2ccccc2)C1` (mixture of isomers) [Compound 62], in that order: “+ (<0.1 10^−6 cm/s)” and 1000 to 3000 nM.
For `COC(=O)C[N+]1(CC(=O)Nc2c(C)cccc2C(=O)OC)CCCC(c2ccccc2)C1` (mixture of isomers) [Compound 64], in that order: “+ (<0.1 10^−6 cm/s)” and less than 1000 nM.
For `CC[N+]1(CC(=O)Nc2c(C)cccc2C(=O)OC)CCCC(c2ccccc2)C1` (mixture of isomers) [Compound 65], the IC50 in series [3] is 10000 to 30000 nM; in series [2], less than 1000 nM. Moreover, in series [1], the “PAMPA (10^−6 cm/s)” value is “+ (<0.1 10^−6 cm/s)”.
On the same counts, the results for `COC(=O)c1cccc(C)c1NC(=O)C[N+]1(Cc2ccccc2)CCCCCC1` [Compound 1] are 1000 to 10000 nM, less than 1000 nM and “+ (<0.1 10^−6 cm/s)”.
For `CCOC(=O)c1cccc(C)c1NC(=O)C[N+]1(Cc2ccccc2)CCCCCC1` [Compound 2], in that order: 1000 to 10000 nM, less than 1000 nM and “+ (<0.1 10^−6 cm/s)”.
As to `CCCOC(=O)c1cccc(C)c1NC(=O)C[N+]1(Cc2ccccc2)CCCCCC1.[Br-]` [Compound 6], the “PAMPA (10^−6 cm/s)” value in series [1] was “+ (<0.1 10^−6 cm/s)”. The IC50 in series [2] was 1000 to 3000 nM.
For `CCCOC(=O)C1CCC[N+](CC)(CC(=O)Nc2c(C)cccc2C(=O)OC)C1.[I-]` (stereo not shown) [Compound 26], in that order: “+ (<0.1 10^−6 cm/s)” and 1000 to 3000 nM.
On the same counts, the results for `CCNC(=O)C1CCC[N+](CC(=O)Nc2c(C)cccc2C(=O)OC)(Cc2ccccc2)C1.O=C([O-])C(F)(F)F` (stereo not shown) [Compound 33] are “++ (0.1-2.0 10^−6 cm/s)” and less than 1000 nM.
On the same counts, the results for `COC(=O)c1cccc(C)c1NC(=O)C[N+]1(Cc2ccccc2)CCCC(C(=O)N2CCCCCC2)C1.[Br-]` (stereo not shown) [Compound 34] are “+ (<0.1 10^−6 cm/s)” and 1000 to 3000 nM.
For `COC(=O)c1cccc(C)c1NC(=O)C[N+]1(Cc2ccccc2)CCCC(C(=O)NC2CCCC2)C1.[Br-]` (stereo not shown) [Compound 41], the “PAMPA (10^−6 cm/s)” value in series [1] is on record as “+ (<0.1 10^−6 cm/s)”. For the same compound, the IC50 in series [2] fell in the range of 1000 to 3000 nM.
With `CC[N+]1(CC(=O)Nc2c(C)cccc2C(=O)OC)CCCC(C(=O)NC)C1.[I-]` (stereo not shown) [Compound 46], in series [1], the “PAMPA (10^−6 cm/s)” value is “+ (<0.1 10^−6 cm/s)”. Also, the IC50 in series [2] lay in the range of 3000 to 10000 nM.
On the same counts, the results for `CC[N+]1(CC(=O)Nc2c(C)cccc2C(=O)OC)CCCC(C(=O)NC2CCCCC2)C1.[I-]` (stereo not shown) [Compound 56] are “+ (<0.1 10^−6 cm/s)” and 1000 to 3000 nM.
On the same counts, the results for `CCc1cccc(C[N+]2(C(CC)C(=O)Nc3c(C)cccc3C(=O)OC)CCCCC2)c1.O=C[O-]` (stereo not shown) [Compound 58] are “+ (<0.1 10^−6 cm/s)” and 3000 to 10000 nM.
On the same counts, the results for `COC(=O)c1cccc(C)c1NC(=O)C[N+]1(CC(=O)N(C)C)CCCC(c2ccccc2)C1.O=C([O-])C(F)(F)F` (stereo not shown) [Compound 60] are “+ (<0.1 10^−6 cm/s)” and less than 1000 nM.
In the case of `CCOC(=O)c1cccc(C)c1NC(=O)C[n+]1cccc(-c2ccccc2)c1` [Compound 67], the “PAMPA (10^−6 cm/s)” value in series [1] is listed as “+++ (2.0-10.010^−6 cm/s)”. Moreover, the IC50 in series [2] is less than 1000 nM.
